Test results published in patent US8759532B2, “Pyridine and pyrimidine derivatives as phosphodiesterase 10 inhibitors” (AMGEN Inc., priority 2008, dated 2014).

Biological target: PDE10 (Mus musculus, UniProt Q8CA95)
Test: PDE10 enzyme inhibition, IMAP TR-FRET assay
Format: biochemical
Description: MPDE10A7 Enzyme Activity and Inhibition
An IMAP TR-FRET assay was used to analyze the enzyme activity (Molecular Devices Corp., Sunnyvale Calif.). 5 μL of serial diluted PDE10A (BPS Bioscience, San Diego, Calif.) or tissue homogenate was incubated with equal volumes of diluted fluorescein labeled cAMP or cGMP for 60 min in 384-well polystyrene assay plates (Corning, Corning, N.Y.) at room temperature. After incubation, the reaction was stopped by adding 60 μL of diluted binding reagents and was incubated for 3 hours to overnight at room temperature. The plates were read on an Envision (Perkin Elmer, Waltham, Mass.) for time resolved fluorescence resonance energy transfer. The data were analyzed with GraphPad Prism (La Jolla, Calif.).
To check the inhibition profile, 5 μL of serial diluted compounds were incubated with 5 μL of diluted PDE10 enzyme (BPS Bioscience, San Diego, Calif.) or tissue homogenate in a 384-well polystyrene assay plate (Corning, Corning, N.Y.) for 30 min at room temperature. After incubation, 10 μL of diluted fluorescein labeled cAMP or cGMP substrate were added and incubated for 60 min at room temperature. The reaction was stopped by adding 60 μL of diluted binding reagents and plates were read on an Envision (Perkin Elmer, Waltham, Mass.) for time resolved fluorescence resonance energy transfer. The data were analyzed with GraphPad Prism (La Jolla, Calif.).
The tabulated IC50 data represent an average IC50 data for each compound.

PDE10, sequence (Q8CA95 whole entry, looked up): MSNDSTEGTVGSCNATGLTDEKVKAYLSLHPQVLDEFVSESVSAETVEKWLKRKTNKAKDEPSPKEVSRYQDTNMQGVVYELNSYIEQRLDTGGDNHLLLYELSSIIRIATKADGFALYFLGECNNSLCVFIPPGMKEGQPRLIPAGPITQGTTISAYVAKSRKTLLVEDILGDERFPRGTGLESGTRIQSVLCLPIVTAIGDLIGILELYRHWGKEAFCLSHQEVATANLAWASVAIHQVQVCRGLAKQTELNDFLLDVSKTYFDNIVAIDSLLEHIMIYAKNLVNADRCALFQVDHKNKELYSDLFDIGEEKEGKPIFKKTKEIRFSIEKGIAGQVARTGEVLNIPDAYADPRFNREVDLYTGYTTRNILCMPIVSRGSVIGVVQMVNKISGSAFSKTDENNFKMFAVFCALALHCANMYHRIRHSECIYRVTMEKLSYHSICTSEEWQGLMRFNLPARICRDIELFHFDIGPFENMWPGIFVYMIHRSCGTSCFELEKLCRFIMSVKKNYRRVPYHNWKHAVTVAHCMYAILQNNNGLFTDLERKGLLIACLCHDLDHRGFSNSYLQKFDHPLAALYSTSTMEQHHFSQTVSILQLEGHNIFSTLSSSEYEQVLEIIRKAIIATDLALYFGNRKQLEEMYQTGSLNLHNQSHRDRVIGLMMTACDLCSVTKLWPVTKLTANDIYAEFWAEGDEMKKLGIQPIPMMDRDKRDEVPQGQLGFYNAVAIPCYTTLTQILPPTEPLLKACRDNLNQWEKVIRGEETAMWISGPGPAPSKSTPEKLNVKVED

COc1cnccc1-c1cccnc1Oc1ccc(Nc2nc3ccccc3s2)cc1 [Example 165, N-(4-(3′-methoxy-3,4′-bipyriidn-2-yloxy)phenyl)benzo[d]thiazol-2-amine]
IC50 (IC50 class against PDE10, Table IIA): < 25 nM

(R)-4-(2-(4-(1H-benzo[d]imidazole-2-carbonyl)phenoxy)pyridin-3-yl)-1-methylpyrrolidin-2-one and (S)-4-(2-(4-(1H-benzo[d]imidazole-2-carbonyl)phenoxy)pyridin-3-yl)-1-methylpyrrolidin-2-one [Example 209]
IC50 (IC50 class against PDE10, printed at end of example text): < 25 nM

FC(F)(F)c1cc(-c2cccnc2Oc2ccc(Cc3nc4ccccc4[nH]3)cc2)ccn1 [Example 62, 2-(4-(2′-(trifluoromethyl)-3,4′-bipyriidn-2-yloxy)benzyl)-1H-benzo[d]imidazole]
IC50 (IC50 class against PDE10, Table IA): 100 to 250 nM
